From US20100267561A1, “HERBICIDAL PYRIDAZINONE DERIVATIVES” (priority 2007, published 2010)

Assays:
Assay type in all cases: in vivo
[1] = tested on: Italian ryegrass (Lolium multiflorum); experiment: Test B pre-/postemergence plant response
How it was run: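 Preemergence and postemergence (plants 2-18 cm, 1- to 4-leaf stage) applications used test chemicals in a non-phytotoxic solvent with surfactant. Plants were held in a greenhouse 13 to 15 days, then rated visually against controls on a 0-100 scale (0 no effect, 100 complete control).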

[2] = tested on: Italian ryegrass (Lolium multiflorum); experiment: Test C pre-/postemergence plant response; conditions: Preemergence
Excerpt: (§1) Seeds of plant species selected from annual bluegrass (Poa annua), blackgrass (Alopecurus myosuroides), canola (Brassica rapa), downy bromegrass (Bromus tectorum), green foxtail (Setaria viridis), Italian ryegrass (Lolium multiflorum), canarygrass (Phalaris minor), pigweed (Amaranthus retroflexus), spring barley (Hordeum vulgare), spring wheat (Triticum aestivum), wild mustard (Sinapis arvensis), wild oat (Avena fatua), windgrass (Apera spica-venti), winter barley (Hordeum vulgare), and winter wheat (Triticum aestivum) were planted and treated preemergence with test chemicals formulated in a non-phytotoxic solvent mixture which included a surfactant. At the same time, plants selected from these crop and weed species were treated with postemergence applications of some of the test chemicals formulated in the same manner. Plants ranged in height from 2 to 18 cm (1- to 4-leaf stage) for postemergence treatments.
(§2) Treated plants and controls were maintained in a controlled growth environment for 15 to 25 days after which time all species were compared to controls and visually evaluated. Plant response ratings, summarized in Table C, are based on a scale of 0 to 100 where 0 is no effect and 100 is complete control. A dash (-) response means no test result.

[3] = tested on: annual bluegrass (Poa annua); experiment: Test C pre-/postemergence plant response; conditions: Preemergence
Excerpt: as §1, §2

[4] = tested on: blackgrass (Alopecurus myosuroides); experiment: Test C pre-/postemergence plant response; conditions: Preemergence
Excerpt: as §1, §2

[5] = tested on: canarygrass (Phalaris minor); experiment: Test C pre-/postemergence plant response; conditions: Preemergence
Excerpt: as §1, §2

[6] = tested on: downy bromegrass (Bromus tectorum); experiment: Test C pre-/postemergence plant response; conditions: Preemergence
Excerpt: as §1, §2

[7] = tested on: green foxtail (Setaria viridis); experiment: Test C pre-/postemergence plant response; conditions: Preemergence
Excerpt: as §1, §2

[8] = tested on: pigweed (Amaranthus retroflexus); experiment: Test C pre-/postemergence plant response; conditions: Preemergence
Excerpt: as §1, §2

[9] = tested on: spring wheat (Triticum aestivum); experiment: Test C pre-/postemergence plant response; conditions: Preemergence
Excerpt: as §1, §2

[10] = tested on: wild mustard (Sinapis arvensis); experiment: Test C pre-/postemergence plant response; conditions: Preemergence
Excerpt: as §1, §2

wild oat (Avena fatua) = experiment: Test C pre-/postemergence plant response; conditions: Preemergence
Excerpt: as §1, §2

[11] = tested on: windgrass (Apera spica-venti); experiment: Test C pre-/postemergence plant response; conditions: Preemergence
Excerpt: as §1, §2

[12] = tested on: winter barley (Hordeum vulgare); experiment: Test C pre-/postemergence plant response; conditions: Preemergence
Excerpt: as §1, §2

[13] = tested on: winter wheat (Triticum aestivum); experiment: Test C pre-/postemergence plant response; conditions: Preemergence
Excerpt: as §1, §2

[14] = Preemergence, 8 g ai/ha, scale 0 to 100
[15] = 8 g ai/ha, scale 0 to 100 (0 no effect, 100 complete control)
[16] = 16 g ai/ha, scale 0 to 100 (0 no effect, 100 complete control)
[17] = 31 g ai/ha, scale 0 to 100 (0 no effect, 100 complete control)
[18] = 62 g ai/ha, scale 0 to 100, 0 no effect, 100 complete control
[19] = 8 g ai/ha, postemergence, 0-100 scale
[20] = Postemergence, 16 g ai/ha, scale 0 to 100
[21] = Postemergence, 31 g ai/ha, scale 0 to 100, 0 no effect, 100 complete control
[22] = Postemergence, 62 g ai/ha, scale 0 to 100, 0 no effect, 100 complete control
[23] = Preemergence, 16 g ai/ha, scale 0 to 100 (0 no effect, 100 complete control)
[24] = Preemergence, 31 g ai/ha, 0 to 100 scale, 0 no effect, 100 complete control
[25] = Preemergence, 62 g ai/ha, scale 0 to 100

C#CCOC(=O)Oc1cnn(C)c(=O)c1-n1nc(-c2ccc(Cl)cc2)cc1C [Compound 58]
Plant response rating, Ryegrass, Italian ([1]; Preemergence, 31 g ai/ha, scale 0 to 100 (0 no effect, 100 complete control)): 100 | Plant response rating, Ryegrass, Italian ([1]; Preemergence, 62 g ai/ha, 0 to 100 scale, 0 no effect, 100 complete control): 100 | Ryegrass, Italian plant response rating [1, 14]: 0 | Ryegrass, Italian plant response rating ([1]; Preemergence, 16 g ai/ha, scale 0 to 100): 100 | Plant response rating, Ryegrass, Italian [2, 15]: 25 | Plant response rating, Ryegrass, Italian [2, 16]: 65 | Plant response rating, Ryegrass, Italian [2, 17]: 100 | Plant response rating, Ryegrass, Italian [2, 18]: 100 | Plant response rating, Bluegrass [3, 15]: 0 | Plant response rating, Bluegrass [3, 16]: 0 | Plant response rating, Bluegrass [3, 17]: 0 | Plant response rating, Bluegrass [3, 18]: 0 | Plant response rating, Blackgrass [4, 15]: 0 | Plant response rating, Blackgrass [4, 16]: 65 | Plant response rating, Blackgrass [4, 17]: 98 | Plant response rating, Blackgrass [4, 18]: 100 | Plant response rating, Canarygrass [5, 15]: 0 | Plant response rating, Canarygrass [5, 16]: 60 | Plant response rating, Canarygrass [5, 17]: 90 | Plant response rating, Canarygrass [5, 18]: 95 | Plant response rating, Bromegrass, Downy [6, 15]: 0 | Plant response rating, Bromegrass, Downy [6, 16]: 15 | Plant response rating, Bromegrass, Downy [6, 17]: 70 | Plant response rating, Bromegrass, Downy [6, 18]: 75 | Plant response rating, Foxtail, Green [7, 15]: 35 | Plant response rating, Foxtail, Green [7, 16]: 98 | Plant response rating, Foxtail, Green [7, 17]: 100 | Plant response rating, Foxtail, Green [7, 18]: 100 | Plant response rating, Pigweed [8, 15]: 0 | Plant response rating, Pigweed [8, 18]: 0 | Plant response rating, Wheat, Spring [9, 15]: 0 | Plant response rating, Wheat, Spring [9, 16]: 50 | Plant response rating, Wheat, Spring [9, 17]: 60 | Plant response rating, Wheat, Spring [9, 18]: 90 | Plant response rating, Mustard, Wild [10, 15]: 0 | Plant response rating, Mustard, Wild [10, 16]: 0 | Plant response rating, Mustard, Wild [10, 18]: 0 | Plant response rating, Oat, Wild (wild oat (Avena fatua); [15]): 0 | Plant response rating, Oat, Wild (wild oat (Avena fatua); [16]): 50 | Plant response rating, Oat, Wild (wild oat (Avena fatua); [17]): 65 | Plant response rating, Oat, Wild (wild oat (Avena fatua); [18]): 75 | Plant response rating, Windgrass [11, 15]: 0 | Plant response rating, Windgrass [11, 16]: 20 | Plant response rating, Windgrass [11, 17]: 50 | Plant response rating, Windgrass [11, 18]: 70 | Plant response rating, Barley, Winter [12, 15]: 0 | Plant response rating, Barley, Winter [12, 16]: 0 | Plant response rating, Barley, Winter [12, 17]: 0 | Plant response rating, Barley, Winter [12, 18]: 75 | Plant response rating, Wheat, Winter [13, 15]: 0 | Plant response rating, Wheat, Winter [13, 16]: 0 | Plant response rating, Wheat, Winter [13, 17]: 60 | Plant response rating, Wheat, Winter [13, 18]: 80

Cn1ncc(O)c(-c2nn(-c3ccc(Cl)cc3)cc2Cl)c1=O [Compound 28]
Ryegrass, Italian plant response rating [1, 19]: 40 | Plant response rating, Ryegrass, Italian [1, 20]: 55 | Plant response rating, Ryegrass, Italian [1, 21]: 55 | Plant response rating, Ryegrass, Italian [1, 22]: 98 | Plant response rating, Ryegrass, Italian [1, 23]: 80 | Plant response rating, Ryegrass, Italian [1, 24]: 100 | Plant response rating, Ryegrass, Italian [1, 25]: 100 | Ryegrass, Italian plant response rating [1, 14]: 0 | Plant response rating, Ryegrass, Italian [2, 15]: 0 | Plant response rating, Ryegrass, Italian [2, 16]: 15 | Plant response rating, Ryegrass, Italian [2, 17]: 90 | Plant response rating, Ryegrass, Italian [2, 18]: 95 | Plant response rating, Bluegrass [3, 15]: 0 | Plant response rating, Bluegrass [3, 16]: 0 | Plant response rating, Bluegrass [3, 18]: 50 | Plant response rating, Blackgrass [4, 15]: 0 | Plant response rating, Blackgrass [4, 16]: 5 | Plant response rating, Blackgrass [4, 17]: 15 | Plant response rating, Blackgrass [4, 18]: 85 | Plant response rating, Canarygrass [5, 15]: 0 | Plant response rating, Canarygrass [5, 16]: 0 | Plant response rating, Canarygrass [5, 17]: 10 | Plant response rating, Canarygrass [5, 18]: 90 | Plant response rating, Bromegrass, Downy [6, 15]: 0 | Plant response rating, Bromegrass, Downy [6, 16]: 0 | Plant response rating, Bromegrass, Downy [6, 17]: 20 | Plant response rating, Bromegrass, Downy [6, 18]: 75 | Plant response rating, Foxtail, Green [7, 15]: 0 | Plant response rating, Foxtail, Green [7, 16]: 20 | Plant response rating, Foxtail, Green [7, 17]: 100 | Plant response rating, Foxtail, Green [7, 18]: 100 | Plant response rating, Pigweed [8, 15]: 0 | Plant response rating, Pigweed [8, 16]: 0 | Plant response rating, Pigweed [8, 17]: 0 | Plant response rating, Pigweed [8, 18]: 0 | Plant response rating, Wheat, Spring [9, 15]: 0 | Plant response rating, Wheat, Spring [9, 16]: 0 | Plant response rating, Wheat, Spring [9, 17]: 35 | Plant response rating, Wheat, Spring [9, 18]: 50 | Plant response rating, Mustard, Wild [10, 15]: 0 | Plant response rating, Mustard, Wild [10, 16]: 0 | Plant response rating, Mustard, Wild [10, 17]: 0 | Plant response rating, Mustard, Wild [10, 18]: 0 | Plant response rating, Oat, Wild (wild oat (Avena fatua); [15]): 0 | Plant response rating, Oat, Wild (wild oat (Avena fatua); [16]): 0 | Plant response rating, Oat, Wild (wild oat (Avena fatua); [17]): 20 | Plant response rating, Oat, Wild (wild oat (Avena fatua); [18]): 75 | Plant response rating, Windgrass [11, 15]: 20 | Plant response rating, Windgrass [11, 16]: 30 | Plant response rating, Windgrass [11, 17]: 75 | Plant response rating, Windgrass [11, 18]: 85 | Plant response rating, Barley, Winter [12, 15]: 0 | Plant response rating, Barley, Winter [12, 16]: 0 | Plant response rating, Barley, Winter [12, 17]: 0 | Plant response rating, Barley, Winter [12, 18]: 40 | Plant response rating, Wheat, Winter [13, 15]: 0 | Plant response rating, Wheat, Winter [13, 16]: 10 | Plant response rating, Wheat, Winter [13, 17]: 30 | Plant response rating, Wheat, Winter [13, 18]: 60

COC(=O)Oc1cnn(C)c(=O)c1-n1nc(-c2ccc(Cl)cc2)cc1C [Compound 33]
Ryegrass, Italian plant response rating [1, 19]: 75 | Plant response rating, Ryegrass, Italian [1, 20]: 80 | Plant response rating, Ryegrass, Italian [1, 21]: 100 | Plant response rating, Ryegrass, Italian [1, 22]: 100 | Plant response rating, Ryegrass, Italian [1, 23]: 95 | Plant response rating, Ryegrass, Italian [1, 24]: 95 | Plant response rating, Ryegrass, Italian [1, 25]: 98 | Ryegrass, Italian plant response rating [1, 14]: 85 | Plant response rating, Ryegrass, Italian [2, 15]: 10 | Plant response rating, Ryegrass, Italian [2, 16]: 65 | Plant response rating, Ryegrass, Italian [2, 17]: 100 | Plant response rating, Ryegrass, Italian [2, 18]: 100 | Plant response rating, Bluegrass [3, 15]: 0 | Plant response rating, Bluegrass [3, 16]: 0 | Plant response rating, Bluegrass [3, 17]: 0 | Plant response rating, Bluegrass [3, 18]: 0 | Plant response rating, Blackgrass [4, 15]: 0 | Plant response rating, Blackgrass [4, 16]: 50 | Plant response rating, Blackgrass [4, 17]: 80 | Plant response rating, Blackgrass [4, 18]: 100 | Plant response rating, Canarygrass [5, 15]: 0 | Plant response rating, Canarygrass [5, 16]: 10 | Plant response rating, Canarygrass [5, 17]: 65 | Plant response rating, Canarygrass [5, 18]: 90 | Plant response rating, Bromegrass, Downy [6, 15]: 0 | Plant response rating, Bromegrass, Downy [6, 16]: 35 | Plant response rating, Bromegrass, Downy [6, 17]: 35 | Plant response rating, Bromegrass, Downy [6, 18]: 60 | Plant response rating, Foxtail, Green [7, 15]: 15 | Plant response rating, Foxtail, Green [7, 16]: 95 | Plant response rating, Foxtail, Green [7, 17]: 100 | Plant response rating, Foxtail, Green [7, 18]: 100 | Plant response rating, Pigweed [8, 16]: 0 | Plant response rating, Pigweed [8, 17]: 0 | Plant response rating, Pigweed [8, 18]: 0 | Plant response rating, Wheat, Spring [9, 15]: 0 | Plant response rating, Wheat, Spring [9, 16]: 0 | Plant response rating, Wheat, Spring [9, 17]: 20 | Plant response rating, Wheat, Spring [9, 18]: 50 | Plant response rating, Oat, Wild (wild oat (Avena fatua); [15]): 0 | Plant response rating, Oat, Wild (wild oat (Avena fatua); [16]): 25 | Plant response rating, Oat, Wild (wild oat (Avena fatua); [17]): 60 | Plant response rating, Oat, Wild (wild oat (Avena fatua); [18]): 75 | Plant response rating, Windgrass [11, 15]: 0 | Plant response rating, Windgrass [11, 16]: 0 | Plant response rating, Windgrass [11, 18]: 50 | Plant response rating, Barley, Winter [12, 15]: 0 | Plant response rating, Barley, Winter [12, 16]: 0 | Plant response rating, Barley, Winter [12, 17]: 0 | Plant response rating, Barley, Winter [12, 18]: 20 | Plant response rating, Wheat, Winter [13, 15]: 0 | Plant response rating, Wheat, Winter [13, 16]: 0 | Plant response rating, Wheat, Winter [13, 17]: 15 | Plant response rating, Wheat, Winter [13, 18]: 40
